Consider 18 compounds from PubChem BioAssay AID256 (DTP/NCI, 2004).

This test deals with CD2F1 mice, L1210 leukemia ip, survival T/C. The experiment in a line: NCI In Vivo Anticancer Drug Screen. Data for tumor model L1210 Leukemia (intraperitoneal) in CD2F1 (CDF1) mice. The following applies: higher = longer survival. The method in brief: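 Compound-dosed mice with transplantable tumor versus matched vehicle controls; endpoint ratio T/C reported.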
Setting [1] is: endpoint: mean survival time, dose: 100.0 mg/kg/injection, schedule: Q04DX003 (ip), vehicle: saline with Tween-80.
[2] abbreviates: endpoint: mean survival time, dose: 25.0 mg/kg/injection, schedule: Q04DX002 (ip), vehicle: saline with Tween-80.
[3] abbreviates: endpoint: mean survival time, dose: 50.0 mg/kg/injection, schedule: Q04DX002 (ip), vehicle: saline with Tween-80.
Where [4] appears, read: endpoint: mean survival time, dose: 100.0 mg/kg/injection, schedule: Q04DX002 (ip), vehicle: saline with Tween-80.
Setting [5] is: endpoint: mean survival time, dose: 200.0 mg/kg/injection, schedule: Q04DX003 (ip), vehicle: saline with Tween-80.
Where [6] appears, read: endpoint: mean survival time, dose: 50.0 mg/kg/injection, schedule: Q01DX001 (ip), vehicle: saline.
Where [7] appears, read: endpoint: mean survival time, dose: 100.0 mg/kg/injection, schedule: Q01DX001 (ip), vehicle: saline.
[8] abbreviates: endpoint: mean survival time, dose: 100.0 mg/kg/injection, schedule: Q01DX009 (ip), vehicle: saline.
The mark [9] stands for this setting: endpoint: mean survival time, dose: 100.0 mg/kg/injection, schedule: Q04DX003 (ip), vehicle: saline.
Where [10] appears, read: endpoint: mean survival time, dose: 200.0 mg/kg/injection, schedule: Q01DX009 (ip), vehicle: other.

Values joined by “and” are separate entries in the source; they are usually repeats but may differ in a detail not shown here. Equal entries are not always repeated. Inconclusive results and toxic doses are left out.

For `O=c1ccn(C2CC(O)C(COC(c3ccccc3)(c3ccccc3)c3ccccc3)O2)c(=O)[nH]1` (centres undefined), the T/C reads like this: (endpoint: median survival time, dose: 12.5 mg/kg/injection, schedule: Q01DX005 (ip), vehicle: saline with Tween-80) 98 % of control and 97 % of control; (endpoint: median survival time, dose: 25.0 mg/kg/injection, schedule: Q01DX005 (ip), vehicle: saline with Tween-80) 99 % of control and 92 % of control; (endpoint: median survival time, dose: 50.0 mg/kg/injection, schedule: Q01DX005 (ip), vehicle: saline with Tween-80) 99 % of control and 96 % of control; (endpoint: median survival time, dose: 100.0 mg/kg/injection, schedule: Q01DX005 (ip), vehicle: saline with Tween-80) 100 % of control and 96 % of control; (endpoint: median survival time, dose: 200.0 mg/kg/injection, schedule: Q01DX005 (ip), vehicle: saline with Tween-80) 100 % of control and 98 % of control.
Regarding `CC(=O)Nc1sc([N+](=O)[O-])cc1[N+](=O)[O-]`, the T/C by setting is: (endpoint: mean survival time, dose: 25.0 mg/kg/injection, schedule: Q04DX003 (ip), vehicle: saline with Tween-80) 101 % of control; (endpoint: mean survival time, dose: 50.0 mg/kg/injection, schedule: Q04DX003 (ip), vehicle: saline with Tween-80) 108 % of control; under setting [1], 91 % of control and 101 % of control.
On to `O=C(O)C1C2CCC(C2)C1C(=O)O` (centres undefined), for which the T/C runs as follows: under setting [2], 118 % of control; under setting [3], 100 % of control; (endpoint: mean survival time, dose: 100.0 mg/kg/injection, schedule: Q01DX001 (ip), vehicle: Klucel (hydroxypropylcellulose) (HPC)) 108 % of control; under setting [4], 89 % of control; under setting [1], 105 % of control; (endpoint: mean survival time, dose: 200.0 mg/kg/injection, schedule: Q01DX001 (ip), vehicle: Klucel (hydroxypropylcellulose) (HPC)) 98 % of control. Besides, the T/C (endpoint: mean survival time, dose: 200.0 mg/kg/injection, schedule: Q04DX002 (ip), vehicle: saline with Tween-80) is 93 % of control; the T/C under setting [5] is 102 % of control; the T/C (endpoint: mean survival time, dose: 400.0 mg/kg/injection, schedule: Q01DX001 (ip), vehicle: Klucel (hydroxypropylcellulose) (HPC)) was 96 % of control.
For the compound `Cc1ccc(S(=O)(=O)OCC2C3CCC(C3)C2COS(=O)(=O)c2ccc(C)cc2)cc1` (centres undefined), the T/C reads like this: under setting [2], 95 % of control; under setting [3], 95 % of control; under setting [4], 95 % of control and 98 % of control.
For `Cn1c2ccccc2c2ccccc21`, the T/C is, setting by setting: under setting [1], 100 % of control; under setting [5], 102 % of control; (endpoint: mean survival time, dose: 400.0 mg/kg/injection, schedule: Q04DX003 (ip), vehicle: saline with Tween-80) 97 % of control.
Turning to `COc1ccc(Cl)cc1Cn1ccnc1`, the T/C reads like this: under setting [6], 104 % of control; (endpoint: mean survival time, dose: 50.0 mg/kg/injection, schedule: Q01DX009 (ip), vehicle: saline) 115 % of control and 102 % of control; (endpoint: mean survival time, dose: 50.0 mg/kg/injection, schedule: Q04DX003 (ip), vehicle: saline) 107 % of control; under setting [7], 107 % of control; under setting [8], 118 % of control and 107 % of control; (endpoint: mean survival time, dose: 100.0 mg/kg/injection, schedule: Q04DX002 (ip), vehicle: saline) 115 % of control and 100 % of control. Also, the T/C runs as follows: under setting [9], 115 % of control; (endpoint: mean survival time, dose: 200.0 mg/kg/injection, schedule: Q04DX002 (ip), vehicle: saline) 117 % of control and 109 % of control.
Consider `CS(=O)(=O)CS(=O)(=O)OCCCl`, for which the T/C is 116 % of control and 121 % of control (endpoint: median survival time, dose: 6.25 mg/kg/injection, schedule: Q01DX009 (ip), vehicle: saline with Tween-80); 168 % of control (endpoint: median survival time, dose: 12.5 mg/kg/injection, schedule: Q01DX009 (ip), vehicle: saline with Tween-80); 207 % of control and 228 % of control (endpoint: median survival time, dose: 25.0 mg/kg/injection, schedule: Q01DX009 (ip), vehicle: saline with Tween-80); 197 % of control (endpoint: median survival time, dose: 25.0 mg/kg/injection, schedule: Q01DX009 (ip), vehicle: saline); 370 % of control and 722 % of control (endpoint: median survival time, dose: 50.0 mg/kg/injection, schedule: Q01DX009 (ip), vehicle: saline with Tween-80); 352 % of control (endpoint: median survival time, dose: 50.0 mg/kg/injection, schedule: Q01DX009 (ip), vehicle: saline). Besides, the T/C (endpoint: median survival time, dose: 100.0 mg/kg/injection, schedule: Q01DX009 (ip), vehicle: saline with Tween-80) is 370 % of control and the T/C (endpoint: median survival time, dose: 100.0 mg/kg/injection, schedule: Q01DX009 (ip), vehicle: saline) was 352 % of control.
In the case of `C#CCCCCCC#[C][Hg][C]#CCCCCCC#C.C#CCCCCCC#[C][Hg][C]#CCCCCCC#C`, the T/C (endpoint: mean survival time, dose: 75.0 mg/kg/injection, schedule: Q04DX003 (ip), vehicle: saline) was 91 % of control; the T/C (endpoint: mean survival time, dose: 150.0 mg/kg/injection, schedule: Q01DX009 (ip), vehicle: saline) is 91 % of control; the T/C (endpoint: mean survival time, dose: 150.0 mg/kg/injection, schedule: Q04DX003 (ip), vehicle: saline) is 94 % of control; the T/C (endpoint: mean survival time, dose: 300.0 mg/kg/injection, schedule: Q04DX003 (ip), vehicle: saline) was 94 % of control.
In the case of `O=C(Nc1ccccc1F)c1ccccc1Cl`, the T/C is 98 % of control under setting [8]; 106 % of control under setting [9]; 92 % of control (endpoint: mean survival time, dose: 200.0 mg/kg/injection, schedule: Q01DX009 (ip), vehicle: saline); 104 % of control (endpoint: mean survival time, dose: 200.0 mg/kg/injection, schedule: Q04DX003 (ip), vehicle: saline); 98 % of control (endpoint: mean survival time, dose: 400.0 mg/kg/injection, schedule: Q01DX009 (ip), vehicle: saline); 97 % of control (endpoint: mean survival time, dose: 400.0 mg/kg/injection, schedule: Q04DX003 (ip), vehicle: saline).
Regarding `Cc1ncc2c(n1)NC(c1ccc(Cl)cc1Cl)NC2` (centres undefined), the T/C (endpoint: mean survival time, dose: 75.0 mg/kg/injection, schedule: Q01DX001 (ip), vehicle: saline) is 101 % of control; the T/C (endpoint: mean survival time, dose: 150.0 mg/kg/injection, schedule: Q01DX001 (ip), vehicle: saline) is 105 % of control; the T/C (endpoint: mean survival time, dose: 300.0 mg/kg/injection, schedule: Q01DX001 (ip), vehicle: saline) is 101 % of control.
In the case of `BrC1(Br)C2COCOCC21` (centres undefined), the T/C is, setting by setting: (endpoint: mean survival time, dose: 100.0 mg/kg/injection, schedule: Q01DX001 (ip), vehicle: saline with Tween-80) 94 % of control; (endpoint: mean survival time, dose: 200.0 mg/kg/injection, schedule: Q01DX001 (ip), vehicle: saline with Tween-80) 94 % of control; (endpoint: mean survival time, dose: 400.0 mg/kg/injection, schedule: Q01DX001 (ip), vehicle: saline with Tween-80) 94 % of control.
In the case of `O=C1C=CC(=O)N1CN1CCOCC1`, the T/C was 103 % of control (endpoint: mean survival time, dose: 4.37 mg/kg/injection, schedule: Q01DX009 (ip), vehicle: saline); 91 % of control (endpoint: mean survival time, dose: 8.75 mg/kg/injection, schedule: Q01DX009 (ip), vehicle: saline); 95 % of control (endpoint: mean survival time, dose: 12.5 mg/kg/injection, schedule: Q04DX003 (ip), vehicle: saline).
In the case of `COc1ccc2c(c1[N+](=O)[O-])CCCCC2=O`, the T/C runs as follows: (endpoint: mean survival time, dose: 50.0 mg/kg/injection, schedule: Q01DX009 (ip), vehicle: other) 100 % of control; (endpoint: mean survival time, dose: 100.0 mg/kg/injection, schedule: Q01DX009 (ip), vehicle: other) 92 % of control; under setting [10], 100 % of control.
Turning to `CC(C)(O)/C=C/C(=O)[C@](C)(O)[C@H]1[C@H](O)C[C@@]2(C)[C@@H]3CC=C4[C@@H](C=C(O)C(=O)C4(C)C)[C@]3(C)C(=O)C[C@]12C`, the T/C by setting is: (endpoint: median survival time, dose: 0.5 mg/kg/injection, schedule: Q01DX005 (ip), vehicle: water) 113 % of control; (endpoint: median survival time, dose: 1.0 mg/kg/injection, schedule: Q01DX005 (ip), vehicle: water) 110 % of control.
Turning to `O=C(O)C(CO)C(CO)C(=O)O` (centres undefined), the T/C was 107 % of control under setting [6]; 121 % of control under setting [7]; 101 % of control (endpoint: mean survival time, dose: 200.0 mg/kg/injection, schedule: Q01DX001 (ip), vehicle: saline); 106 % of control (endpoint: mean survival time, dose: 400.0 mg/kg/injection, schedule: Q01DX001 (ip), vehicle: saline).
As for `O=C(O)C(=O)O.[La]`, the T/C runs as follows: under setting [10], 98 % of control; (endpoint: mean survival time, dose: 400.0 mg/kg/injection, schedule: Q01DX009 (ip), vehicle: other) 96 % of control.
Turning to `Clc1ccc(-c2cc(-c3ccc(Cl)cc3)cc(-c3ccc(Cl)cc3)c2)cc1`, the T/C is 101 % of control (endpoint: mean survival time, dose: 100.0 mg/kg/injection, schedule: Q01DX009 (ip), vehicle: saline with Tween-80); 106 % of control (endpoint: mean survival time, dose: 200.0 mg/kg/injection, schedule: Q01DX009 (ip), vehicle: saline with Tween-80); 105 % of control (endpoint: mean survival time, dose: 400.0 mg/kg/injection, schedule: Q01DX009 (ip), vehicle: saline with Tween-80).
For `COC(=O)NC1=C(N2CC2)C(=O)C(NC(=O)OC)=C(N2CC2)C1=O`, the T/C runs as follows: (endpoint: mean survival time, dose: 0.75 mg/kg/injection, schedule: Q01DX009 (ip), vehicle: saline) 154 % of control; (endpoint: mean survival time, dose: 1.5 mg/kg/injection, schedule: Q01DX009 (ip), vehicle: saline) 175 % of control.
